Holding throughout (type): functional
Assay [1] relates to Escherichia coli. Kind of assay: Minimal inhibitory concentration against Escherichia coli.
The test system of assay [2] is Staphylococcus aureus. Kind of assay: In vitro minimal inhibitory concentration against Staphylococcus aureus.
Assay [3] relates to Staphylococcus aureus. Kind of assay: Minimal inhibitory concentration against Staphylococcus aureus (Range is 50-100 uM).
The subject of assay [4] is Escherichia coli. Kind of assay: Minimal inhibitory concentration against Escherichia coli (Range is 50-100 uM).
Assay [5] relates to Escherichia coli. Kind of assay: Minimal inhibitory concentration against Escherichia coli (Range is 25-50 uM).
Assay [6] relates to Staphylococcus aureus. Nature of the assay: Minimal inhibitory concentration against Staphylococcus aureus (Range is 12-25 uM).
Assay [7] concerns Staphylococcus aureus. Kind of assay: Minimal inhibitory concentration against Staphylococcus aureus (Range is 25-50 uM).

In brackets after ≈: the same amount, converted by molar mass.

With `O=C1c2cc3ccccc3cc2C(=O)N1CCCCCn1c(C2CCNCC2)nc2cc(Cl)c(Cl)cc21`, the MIC in assay [1] and in assay [2] was greater than 100 µM throughout.
For `O=C(Cn1c(C2CCNCC2)nc2cc(Cl)c(Cl)cc21)NNC(=S)NCc1ccco1`, the results for the minimum inhibitory concentration (MIC) in assay [1] and in assay [3] were greater than 100 µM and 100 µM (≈ 48.1 µg/mL), respectively.
Consider `O=C1c2ccccc2C(=O)N1CCCn1c(C2CCNCC2)nc2cc(Cl)c(Cl)cc21`, for which the MIC in assay [1] and in assay [2] was greater than 100 µM in each case.
Take `O=C(Cn1c(C2CCNCC2)nc2cc(Cl)c(Cl)cc21)NNC(=S)NCCCN1CCOCC1`: the MIC in assay [1] and in assay [2] was greater than 100 µM in each case.
With `O=C(Cn1c(C2CCNCC2)nc2cc(Cl)c(Cl)cc21)NNC(=O)Nc1ccccc1`, the results for the minimum inhibitory concentration (MIC) in assay [1] and in assay [3] were greater than 100 µM and 100 µM (≈ 46.1 µg/mL), respectively.
Consider `O=C1c2ccc([N+](=O)[O-])cc2C(=O)N1CCCCCn1c(C2CCNCC2)nc2cc(Cl)c(Cl)cc21`, for which the MIC in assay [4] is 100 µM (≈ 53 µg/mL); in assay [2] it was greater than 100 µM.
On to `CSc1ccc(NC(=O)NNC(=O)Cn2c(C3CCNCC3)nc3cc(Cl)c(Cl)cc32)cc1`, for which the minimal inhibitory concentration (MIC) in assay [5] was 50 µM (≈ 25.4 µg/mL); in assay [6] it was 25 µM (≈ 12.7 µg/mL).
As for `COc1cc(/C=N/NC(=O)Cn2c(C3CCNCC3)nc3cc(Cl)c(Cl)cc32)cc(O)c1OC`, the values for the MIC in assay [1] and in assay [7] were greater than 100 µM and 50 µM (≈ 25.3 µg/mL), respectively.
Turning to `O=C(NCCCCCn1c(C2CCNCC2)nc2cc(Cl)c(Cl)cc21)c1ccccc1`, the MIC in assay [1] and in assay [2] was greater than 100 µM throughout.
As for `O=C(Cn1c(C2CCNCC2)nc2cc(Cl)c(Cl)cc21)N/N=C/c1c[nH]c2ccccc12`, the MIC in assay [1] is greater than 100 µM; in assay [7], 50 µM (≈ 23.5 µg/mL).
The like results for `O=C(Cn1c(C2CCNCC2)nc2cc(Cl)c(Cl)cc21)N/N=C/c1ccc2ccccc2n1` were, in that order, greater than 100 µM and 50 µM (≈ 24.1 µg/mL).
On to `O=C(Cn1c(C2CCNCC2)nc2cc(Cl)c(Cl)cc21)NNC(=O)Nc1ccc([N+](=O)[O-])cc1`, for which the figures for the minimal inhibitory concentration (MIC) in assay [1] and in assay [7] were greater than 100 µM and 50 µM (≈ 25.3 µg/mL), respectively.
Turning to `O=C1c2cc(Cl)c([N+](=O)[O-])cc2C(=O)N1CCCCCn1c(C2CCNCC2)nc2cc(Cl)c(Cl)cc21`, the minimal inhibitory concentration (MIC) in assay [4] was 100 µM (≈ 56.5 µg/mL); in assay [7] it was 50 µM (≈ 28.2 µg/mL).
In the case of `O=C1c2ccccc2C(=O)N1CCCCCCn1c(C2CCNCC2)nc2cc(Cl)c(Cl)cc21`, the MIC in assay [1] and in assay [2] was greater than 100 µM in each case.
With `O=C(Cn1c(C2CCNCC2)nc2cc(Cl)c(Cl)cc21)NNC(=S)Nc1ccccc1`, the minimum inhibitory concentration (MIC) in assay [4] was determined as 100 µM (≈ 47.7 µg/mL); in assay [7] it was 50 µM (≈ 23.9 µg/mL).
In the case of `CN(C)c1ccc(N/C(S)=N/NC(=O)Cn2c(C3CCNCC3)nc3cc(Cl)c(Cl)cc32)cc1`, the MIC is greater than 100 µM in assay [1] and 100 µM (≈ 52 µg/mL) in assay [3].
For the compound `O=C(Cn1c(C2CCNCC2)nc2cc(Cl)c(Cl)cc21)N/N=C/c1cccc(OC(F)(F)F)c1`, the minimum inhibitory concentration (MIC) in assay [1] was greater than 100 µM; in assay [7], 50 µM (≈ 25.7 µg/mL).
For the compound `O=C(O)CC/N=C(\S)NNC(=O)Cn1c(C2CCNCC2)nc2cc(Cl)c(Cl)cc21`, the MIC in assay [1] and in assay [2] was greater than 100 µM each time.
Turning to `O=C(Cn1c(C2CCNCC2)nc2cc(Cl)c(Cl)cc21)N/N=C/c1ccc2c(c1)OCCO2`, the minimum inhibitory concentration (MIC) is greater than 100 µM in assay [1] and 100 µM (≈ 48.8 µg/mL) in assay [3].
Take `O=C1c2cc(Cl)c(Cl)cc2C(=O)N1CCCCCn1c(C2CCNCC2)nc2cc(Cl)c(Cl)cc21`: the figures for the MIC in assay [4] and in assay [6] were 100 µM (≈ 55.4 µg/mL) and 25 µM (≈ 13.9 µg/mL), respectively.
With `Clc1cc2nc(C3CCNCC3)n(CCCn3c(C4CCNCC4)nc4cc(Cl)c(Cl)cc43)c2cc1Cl`, the minimum inhibitory concentration (MIC) in assay [5] and in assay [7] was 50 µM (≈ 29 µg/mL) each time.
Consider `O=C(Cn1c(C2CCNCC2)nc2cc(Cl)c(Cl)cc21)N/N=C/c1c[nH]cn1`, for which the values for the MIC in assay [1] and in assay [3] were greater than 100 µM and 100 µM (≈ 42 µg/mL), respectively.
On to `O=C(Cn1c(C2CCNCC2)nc2cc(Cl)c(Cl)cc21)N/N=C/c1ccc[nH]1`, for which the results for the minimum inhibitory concentration (MIC) in assay [1] and in assay [6] were greater than 100 µM and 25 µM (≈ 10.5 µg/mL), respectively.
For `O=C(Cn1c(C2CCNCC2)nc2cc(Cl)c(Cl)cc21)NNC(=O)Nc1ccccc1-c1ccccc1`, the minimum inhibitory concentration (MIC) in assay [5] was found to be 50 µM (≈ 26.9 µg/mL); in assay [6], 25 µM (≈ 13.4 µg/mL).
Consider `Clc1cc2nc(C3CCNCC3)n(CCCCCn3cnnc3)c2cc1Cl`, for which the MIC in assay [1] and in assay [2] was greater than 100 µM in each case.
As to `O=C(Cn1c(C2CCNCC2)nc2cc(Cl)c(Cl)cc21)N/N=C/c1cccc([N+](=O)[O-])c1`, the figures for the minimal inhibitory concentration (MIC) in assay [1] and in assay [7] were greater than 100 µM and 50 µM (≈ 23.8 µg/mL), respectively.
`Clc1cc2nc(SCCCCn3c(C4CCNCC4)nc4cc(Cl)c(Cl)cc43)[nH]c2cc1Cl`: the minimal inhibitory concentration (MIC) in assay [1] and in assay [2] was greater than 100 µM in each case.
`COc1cccc(/C=N/NC(=O)Cn2c(C3CCNCC3)nc3cc(Cl)c(Cl)cc32)c1`: the MIC was greater than 100 µM in assay [1] and 50 µM (≈ 23 µg/mL) in assay [7].
As for `Clc1cc2nc(C3CCNCC3)n(CCCCCn3cnc4ccccc43)c2cc1Cl`, the minimum inhibitory concentration (MIC) in assay [4] and in assay [3] was 100 µM (≈ 45.6 µg/mL) each time.
As to `O=C(Cn1c(C2CCNCC2)nc2cc(Cl)c(Cl)cc21)NNC(=O)Nc1ccc2c(c1)OCO2`, the figures for the MIC in assay [4] and in assay [7] were 100 µM (≈ 50.5 µg/mL) and 50 µM (≈ 25.3 µg/mL), respectively.
In the case of `COc1cc(/C=N/NC(=O)Cn2c(C3CCNCC3)nc3cc(Cl)c(Cl)cc32)cc([N+](=O)[O-])c1O`, the MIC is greater than 100 µM in assay [1] and 50 µM (≈ 26.1 µg/mL) in assay [7].
For the compound `CC(C)c1ccc2c(c1)CCC1C(C)(C/N=C(\S)NNC(=O)Cn3c(C4CCNCC4)nc4cc(Cl)c(Cl)cc43)CCC[C@]21C` (stereo partly specified), the MIC in assay [5] and in assay [7] was 50 µM (≈ 33.5 µg/mL) throughout.
`O=C(Cn1c(C2CCNCC2)nc2cc(Cl)c(Cl)cc21)N/N=C/c1ccccn1`: the MIC in assay [1] and in assay [2] was greater than 100 µM throughout.
As to `O=C(Cn1c(C2CCNCC2)nc2cc(Cl)c(Cl)cc21)N/N=C/c1cc[n+]([O-])cc1`, the MIC in assay [1] and in assay [2] was greater than 100 µM each time.
Turning to `O=S(=O)(NCCCCCn1c(C2CCNCC2)nc2cc(Cl)c(Cl)cc21)c1ccccc1`, the minimum inhibitory concentration (MIC) in assay [1] and in assay [2] was greater than 100 µM throughout.
For `O=C1c2ccccc2C(=O)N1CCn1c(C2CCNCC2)nc2cc(Cl)c(Cl)cc21`, the minimal inhibitory concentration (MIC) in assay [1] and in assay [2] was greater than 100 µM each time.
Turning to `Clc1cc2nc(C3CCNCC3)n(CCCCCN3Cc4ccccc4C3)c2cc1Cl`, the minimum inhibitory concentration (MIC) worked out at 50 µM (≈ 22.9 µg/mL) in assay [5] and 100 µM (≈ 45.7 µg/mL) in assay [3].
Turning to `O=C1c2ccccc2C(=O)N1CCCCn1c(C2CCNCC2)nc2cc(Cl)c(Cl)cc21`, the minimum inhibitory concentration (MIC) in assay [1] and in assay [2] was greater than 100 µM each time.
Take `O=C1CCC(=O)N1CCCCCn1c(C2CCNCC2)nc2cc(Cl)c(Cl)cc21`: the minimum inhibitory concentration (MIC) in assay [1] and in assay [2] was greater than 100 µM throughout.
For `O=C(Cn1c(C2CCNCC2)nc2cc(Cl)c(Cl)cc21)N/N=C/c1ccc(O)c(O)c1O`, the MIC is greater than 100 µM in assay [1] and 25 µM (≈ 12 µg/mL) in assay [6].
In the case of `Clc1cc2nc(C3CCNCC3)n(CCCCSc3[nH]cnc4ncnc3-4)c2cc1Cl`, the minimal inhibitory concentration (MIC) in assay [1] and in assay [2] was greater than 100 µM throughout.
Consider `O=C1c2cccc([N+](=O)[O-])c2C(=O)N1CCCCCn1c(C2CCNCC2)nc2cc(Cl)c(Cl)cc21`, for which the MIC in assay [1] and in assay [2] was greater than 100 µM each time.
With `O=C(Cn1c(C2CCNCC2)nc2cc(Cl)c(Cl)cc21)N/N=C/c1ccncc1`, the MIC in assay [1] and in assay [2] was greater than 100 µM in each case.

These data come from ChEMBL document CHEMBL1147597, “Synthesis and biological evaluations of novel benzimidazoles as potential antibacterial agents” (Bioorg Med Chem Lett, 2004).
